Assay results reported in patent publication US20190125753A1, “COMPOUNDS AND METHODS FOR INCREASING HEMATOPOIESIS” (University of Southern California, priority 2016, published 2019).

Key:
[1] = biological target: T1, CBP/γ-catenin interaction (Mus musculus, UniProt P45481); assay: Co-IP of bone marrow Sca-1posit cells from treated mice (anti-CBP); type: in vivo; conditions: YH250 2 mg/kg subcutaneously, 24 hrs
T1 construct: bone marrow Sca-1posit cells were isolated with Anti-Sca-1 microbeads; from tissue; host or cells: bone marrow Sca-1 positive cells of female C57/Black mice dosed in vivo
Protocol: YH250 was used in this study. Female C57/Black mice were administrated with either DMSO (solvent control) or YH250 (2 mg/kg) subcutaneously. 24 hrs later, bone marrow Sca-1posit cells were isolated with Anti-Sca-1 microbeads (Miltenyi Biotec, Cat#130-092-529) for co-immunoprecipitation (FIG. 4A). Cells were then lysed and incubated with either anti-CBP (A22) or anti-p300 (C20) antibodies. Then, the immunoprecipitation complex were electrophoresed and detected with antibodies to either β-catenin or γ-catenin. […] This confirms that YH250 directly disrupts the p300/catenin interaction thereby enhancing the CBP/catenin interaction in HSPCs.

bone marrow cells [2] = assay: Brief (4 h) incubation of bone marrow cells, 14 days culture, FACS; type: cell-based, mouse
Protocol: Bone marrow cells were treated with DMSO or YH250 (0.5 μM) for 4 hours, then the compound was removed and the cells cultured in QBSF-58 medium for 14 days with 10 ng/ml of SCF, TPO, Flt3 ligand, and IL-6. At the end of culture, cells were recovered and analyzed for LSK cells with FACS.
In a further study, female CD45.1 mice bone marrow cells were incubated with DMSO, or YH249 (0.5 μM) or YH250 (0.5 μM) for 4 hrs in QBSF-58 media, then 2×10^4 cells were plated in QBSF-58 medium containing SCF, TPO, Flt3 and IL-6 (10 ng/ml for each) for 14 days. Cells were then recovered from plate for FACS analysis. […] Correspondingly, there are higher LSK cells (52%, 60% and 70% respectively for DMSO, YH249 and YH250). From every 10,000 analyzed cells, LSKCD34negt cell numbers are 437, 663 and 2051 for DMSO, YH249 and YH250 treated cells, respectively.

cord blood CD34+ cells = assay: Cord blood CD34+ cell culture, colony morphology at day 8; type: cell-based, human; conditions: 4GF medium, day 8 in culture
Protocol: Cord blood CD34^+ cells were cultured in serum free medium with different growth factor combination and different concentrations of YH250. We tested three serum free mediums with either 4 growth factors (4GF, or SF6T: SCF 100 ng/ml; Flt3 100 ng/ml, IL-6 20 ng/ml, and TPO 20 ng/ml) or 6 growth factors (6GF, or SF6TG3: SCF 100 ng/ml; Flt3 100 ng/ml, IL-6 20 ng/ml, TPO 20 ng/ml, GCSF 10 ng/ml, and IL-3 10 ng/ml). YH250 was at 0.3 μM or 1 μM concentration, DMSO, the solvent for YH250, was used as control. Frozen cord blood CD34+ cells were plated into 96 wells with different medium and different growth factors and different compound concentrations. At day 8 in culture, pictures were taken to record the cell growth and colony morphology (FIG. 12A).

cord blood cells = assay: Cord blood cells incubated 24 hrs then BMT to transgenic NSG mice; type: in vivo, human; conditions: 10 μM 24 hrs in 4GF or 6GF medium; day 28th post BMT
Protocol: To examine p300/β-catenin antagonist YH250 effects on cord blood HSC in BMT, cord blood cells were incubated with 4GF or 6GF medium and 10 μM of YH250 for 24 hrs, then cells were recovered and transplanted to irradiated NOD.Cg-Prkdc^scidIL1rg^tmlwjlTg(CMV-[…], CSF2, KITLG)1Eva, MloySzJ; JAX stock#013062) mice, these are transgenic NSG mice expressing human interleukin-3, human GM-CSF and human stem cell factor. Blood were collected at day 28th post BMT to determine engraftment.

bone marrow HSPC = assay: Multiple administration, competitive repopulation assay; type: in vivo, mouse
Protocol: The golden standard to determine HSPC number and activity is a competitive repopulation assay. The testing cells and competitor cells are mixed and transplanted to recipients to create an environment the testing cells compete with competitor cells to repopulate the recipients' hematopoietic system. The quantitative engraftment level reflects the testing cell stem/progenitor cell number.
In this study, donor mice (CD45.2) were treated with YH250 or DMSO every 48 hs for 4 round, then, bone marrow cells from the treated mice were recovered and mixed with competitive cells from non-treated normal mice for BMT to lethally irradiated recipients (FIG. 16A). Blood were collected periodically from recipient mice to determine HSPC activities.

bone marrow cells [3] = assay: Radiation induced apoptosis, cleaved PARP FACS; type: in vivo; conditions: administered 18 hours before 5Gy radiation; 6 hours after radiation
Protocol: Since p300/-catenin antagonists such as YH250 up-regulate survivin gene expression, YH250 was tested for the ability to attenuate radiation induced cell apoptosis by detecting cleaved PARP (Poly ADP ribose polymerase-1) using anti-PARP antibody and FACS analysis (BD Bioscience, Cat#562253, anti-PARP clone F21-852). DMSO or YH250 were administrated 18 hours before 5Gy radiation. 6 hours after radiation, bone marrow cells were isolated and stained for cell surface markers (lineage markers, Sca-1, c-kit) and anti-PARP (FIG. 23A).

[4] = system: bone marrow stem/progenitor cells; assay: HSPC proliferation in 5-FU treated animals; type: in vivo, mouse; conditions: 5-FU 150 mg/kg, YH250 2 mg/kg 24 hours later, analysed one day later
Protocol: p300/-catenin antagonists, such as YH250, were also tested for the ability to stimulate bone marrow stem/progenitor cell proliferation in chemotherapeutic drug-treated (e.g., 5-FU) animals. As depicted in FIG. 24A, animals were given PBS or 5-FU (150 mg/kg). 24 hours later, either DMSO or YH250 (2 mg/kg) were administrated to animals. Then, bone marrow cells were isolated one day later for FACS analysis.

[5] = 0.5 μM 4 hours, 14 days in QBSF-58 with SCF, TPO, Flt3 ligand, IL-6

T1 sequence (P45481 2-2441 limits assumed): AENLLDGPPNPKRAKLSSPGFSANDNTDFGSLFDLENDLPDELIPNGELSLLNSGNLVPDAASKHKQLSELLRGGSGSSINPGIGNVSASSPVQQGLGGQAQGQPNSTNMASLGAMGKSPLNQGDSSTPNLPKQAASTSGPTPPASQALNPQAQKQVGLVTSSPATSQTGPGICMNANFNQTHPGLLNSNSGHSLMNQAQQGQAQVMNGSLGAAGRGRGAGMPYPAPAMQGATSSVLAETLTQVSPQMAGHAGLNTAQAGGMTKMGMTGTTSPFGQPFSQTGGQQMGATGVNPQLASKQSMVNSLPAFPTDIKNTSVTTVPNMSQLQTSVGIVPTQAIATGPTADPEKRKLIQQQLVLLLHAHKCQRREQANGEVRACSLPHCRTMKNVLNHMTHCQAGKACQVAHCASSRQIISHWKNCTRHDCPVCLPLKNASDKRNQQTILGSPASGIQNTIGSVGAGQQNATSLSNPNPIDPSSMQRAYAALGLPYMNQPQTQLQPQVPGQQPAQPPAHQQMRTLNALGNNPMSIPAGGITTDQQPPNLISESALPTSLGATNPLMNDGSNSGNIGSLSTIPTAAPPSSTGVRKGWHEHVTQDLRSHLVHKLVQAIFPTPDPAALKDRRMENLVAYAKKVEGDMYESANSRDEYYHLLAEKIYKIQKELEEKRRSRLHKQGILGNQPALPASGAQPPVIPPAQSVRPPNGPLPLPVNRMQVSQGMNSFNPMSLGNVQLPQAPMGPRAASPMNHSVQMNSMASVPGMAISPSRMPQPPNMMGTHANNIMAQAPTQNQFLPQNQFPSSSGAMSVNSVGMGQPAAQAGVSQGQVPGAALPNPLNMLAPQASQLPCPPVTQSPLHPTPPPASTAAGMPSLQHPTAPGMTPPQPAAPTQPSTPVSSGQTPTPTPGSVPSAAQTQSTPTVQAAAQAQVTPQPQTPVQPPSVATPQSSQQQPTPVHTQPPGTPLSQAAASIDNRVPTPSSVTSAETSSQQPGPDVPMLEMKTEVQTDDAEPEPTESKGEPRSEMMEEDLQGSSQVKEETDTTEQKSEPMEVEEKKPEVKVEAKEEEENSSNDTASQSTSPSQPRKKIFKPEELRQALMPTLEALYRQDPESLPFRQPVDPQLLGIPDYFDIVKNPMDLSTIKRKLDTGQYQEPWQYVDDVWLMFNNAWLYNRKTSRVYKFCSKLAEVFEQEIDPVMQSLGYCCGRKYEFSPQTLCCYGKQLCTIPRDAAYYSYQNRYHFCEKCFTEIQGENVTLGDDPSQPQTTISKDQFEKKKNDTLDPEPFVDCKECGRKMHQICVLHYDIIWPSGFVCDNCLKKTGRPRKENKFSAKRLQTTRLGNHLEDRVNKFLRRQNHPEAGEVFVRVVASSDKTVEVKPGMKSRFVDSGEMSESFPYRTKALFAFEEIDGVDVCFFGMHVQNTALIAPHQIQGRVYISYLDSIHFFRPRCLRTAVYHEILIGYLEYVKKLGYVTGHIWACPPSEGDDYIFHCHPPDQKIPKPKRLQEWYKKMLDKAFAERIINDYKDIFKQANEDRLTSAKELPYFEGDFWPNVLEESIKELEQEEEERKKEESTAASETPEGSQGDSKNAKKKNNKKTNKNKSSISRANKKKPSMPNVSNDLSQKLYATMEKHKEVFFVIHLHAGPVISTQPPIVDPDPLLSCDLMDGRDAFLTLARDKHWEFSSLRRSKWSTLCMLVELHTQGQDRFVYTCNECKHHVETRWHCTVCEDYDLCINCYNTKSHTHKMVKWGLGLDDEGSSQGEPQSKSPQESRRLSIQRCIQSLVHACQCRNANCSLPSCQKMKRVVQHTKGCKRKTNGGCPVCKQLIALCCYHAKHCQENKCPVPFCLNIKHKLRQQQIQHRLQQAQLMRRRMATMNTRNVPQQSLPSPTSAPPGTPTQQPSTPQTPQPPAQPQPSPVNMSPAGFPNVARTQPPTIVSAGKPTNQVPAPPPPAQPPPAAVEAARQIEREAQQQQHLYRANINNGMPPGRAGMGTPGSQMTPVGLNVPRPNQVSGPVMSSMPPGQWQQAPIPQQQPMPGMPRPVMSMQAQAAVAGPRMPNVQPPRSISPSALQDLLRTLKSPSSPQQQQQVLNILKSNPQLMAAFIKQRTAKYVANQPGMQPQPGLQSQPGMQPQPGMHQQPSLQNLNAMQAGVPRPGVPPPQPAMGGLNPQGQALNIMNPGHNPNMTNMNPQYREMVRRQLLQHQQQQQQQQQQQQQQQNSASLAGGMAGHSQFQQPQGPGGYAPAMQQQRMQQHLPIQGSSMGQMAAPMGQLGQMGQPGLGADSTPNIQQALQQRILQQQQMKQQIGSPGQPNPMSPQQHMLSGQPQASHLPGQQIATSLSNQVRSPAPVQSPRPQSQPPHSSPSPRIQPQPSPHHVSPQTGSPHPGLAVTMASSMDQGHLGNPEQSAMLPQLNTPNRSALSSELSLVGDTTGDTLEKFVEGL

SMILES: COc1cccc(CNC(=O)N2C3CN(Cc4cc(Cl)cc(Cl)c4N(C)C)C(=O)[C@H](Cc4ccc(O)cc4)N3C(=O)CN2C)c1OC (some centres unmarked) [YH250]
- CBP/γ-catenin interaction [1]: promotes CBP/γ-catenin interaction
- percentage of LSK cells vs DMSO (bone marrow cells [2]; [5]): significantly higher
- percentage of Lineage negative cells vs DMSO (bone marrow cells [2]; [5]): significantly higher
- lineage negative cell (bone marrow cells [2]; 0.5 μM 4 hrs, 14 days culture, DMSO 9%): 33%
- LSK cells (bone marrow cells [2]; 0.5 μM 4 hrs, 14 days culture, DMSO 52%): 70%
- LSKCD34negt cell numbers (bone marrow cells [2]; from every 10,000 analyzed cells, 0.5 μM 4 hrs, 14 days culture, DMSO 437): 2051
- colony morphology (cord blood CD34+ cells): more close to “stem cell colony” morphology
- human CD34posit cells in blood vs DMSO treated cells (cord blood cells): more human CD34posit cells
- BrdU positive cells in HSPC compartment (bone marrow HSPC; LSK34negt135neg, LSK34neg135neg48negt150posit, LSK34posit135negt cells): more BrdU positive cells
- engraftment level at day 140 and 164 vs day 40 after BMT (bone marrow HSPC; donors treated every 48 hs for 4 round, p<0.01, n=5/group): significantly increased
- engraftment level vs DMSO treated cells (bone marrow HSPC; no statistical significance (n=5)): higher than DMSO treated cells
- apoptosis (cleaved PARP) in LSK, lineage-negt and lineage-posit population (bone marrow cells [3]): significantly less apoptosis
- Lin-CD48-CD150+ cell numbers vs DMSO [4]: significantly higher
- lineage negative cell numbers vs DMSO [4]: significantly higher
